Measurements from patent publication US20260317324A1, “BIFUNCTIONAL COMPOUNDS FOR DEGRADING BRAF VIA UBIQUITIN PROTEOSOME PATHWAY” (Nurix Therapeutics, Inc., priority 2023, published 2026).

Columns and labels:
Type in all cases: cell-based
[1] = biological target: T1, BRAF G466V (Homo sapiens, UniProt P15056, G466V); assay: BRAF HiBiT degradation assay, C-terminal HiBiT-tagged BRAF G466V overexpressed in HCT-116 BRAF−/− cells (clone 8), Nano-Glo HiBiT Lytic assay
T1 construct: Horizon Discovery (HCT-116 BRAF−/− cells); host or cells: HCT-116 BRAF−/− cells, clone 8, lentiviral transduction
How it was run: (§1)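 Degradation assay in HCT-116 BRAF−/− cells carrying lentiviral HiBiT-tagged mutant BRAF. The readout is % protein remaining across 1 μM to 0.01 nM compound, and DC50 marks 50% remaining.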

[2] = biological target: T2, BRAF V600E (Homo sapiens, UniProt P15056, V600E); assay: BRAF HiBiT degradation assay, C-terminal HiBiT-tagged BRAF V600E A375 cells (clone 1F10), Nano-Glo HiBiT Lytic assay; conditions: for Dmax: A-375
T2 construct: endogenous C-terminal HiBiT fusion tag on BRAF V600E allele; endogenous in cells; host or cells: A375 clone 1F10 (CRISPR-Cas9 knock-in of the HiBiT tag; parental A375 from ATCC)
How it was run: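 Using CRISPR-engineered A375 cells that carry a C-terminal HiBiT tag on endogenous BRAF V600E, remaining protein was quantified by lytic luminescence relative to DMSO-treated cells, with wildtype A375 as the background control. DC50 denotes the concentration giving 50% degradation.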

[3] = biological target: T3, BRAF D594G (Homo sapiens, UniProt P15056, D594G); assay: BRAF HiBiT degradation assay, C-terminal HiBiT-tagged BRAF D594G overexpressed in HCT-116 BRAF−/− cells (clone 63), Nano-Glo HiBiT Lytic assay
T3 construct: Horizon Discovery (HCT-116 BRAF−/− cells); host or cells: HCT-116 BRAF−/− cells, clone 63, lentiviral transduction
How it was run: as §1

[4] = biological target: T4, BRAF G469A (Homo sapiens, UniProt P15056, G469A); assay: BRAF HiBiT degradation assay, C-terminal HiBiT-tagged BRAF G469A overexpressed in HCT-116 BRAF−/− cells (clone 34), Nano-Glo HiBiT Lytic assay
T4 construct: Horizon Discovery (HCT-116 BRAF−/− cells); host or cells: HCT-116 BRAF−/− cells, clone 34, lentiviral transduction
How it was run: as §1

[5] = BRAF G466V (Class 3), HCT-116 BRAF−/− cells, DC50 at 50% degradation
[6] = BRAF G466V (Class 3), HCT-116 BRAF−/− cells, observed Dmax relative to DMSO control
[7] = A375 (BRAF V600E, Class 1), DC50 at 50% degradation
[8] = A375 (BRAF V600E, Class 1), observed Dmax, % protein degraded relative to DMSO control
[9] = BRAF D594G (Class 3), HCT-116 BRAF−/− cells, DC50 at 50% degradation
[10] = BRAF D594G (Class 3), HCT-116 BRAF−/− cells, observed Dmax relative to DMSO control
[11] = BRAF G469A (Class 2), HCT-116 BRAF−/− cells, DC50 at 50% degradation
[12] = BRAF G469A (Class 2), HCT-116 BRAF−/− cells, observed Dmax relative to DMSO control
[13] = BRAF G466V, DC50 at 50%: fitted conc. at Y=50
[14] = HCT-116, BRAF G466V, percentage protein degraded at maximal compound effect relative to DMSO
[15] = A375 (BRAF V600E), DC50 at 50%: fitted conc. at Y=50
[16] = A375 (BRAF V600E), percentage protein degraded at maximal compound effect relative to DMSO
[17] = BRAF D594G, DC50 at 50%: fitted conc. at Y=50
[18] = HCT-116, BRAF D594G, percentage protein degraded at maximal compound effect relative to DMSO
[19] = Class 2, BRAF G469A, DC50 at 50%: fitted conc. at Y=50
[20] = HCT-116, Class 2, BRAF G469A, percentage protein degraded at maximal compound effect relative to DMSO

T1 sequence (P15056 whole entry G466V): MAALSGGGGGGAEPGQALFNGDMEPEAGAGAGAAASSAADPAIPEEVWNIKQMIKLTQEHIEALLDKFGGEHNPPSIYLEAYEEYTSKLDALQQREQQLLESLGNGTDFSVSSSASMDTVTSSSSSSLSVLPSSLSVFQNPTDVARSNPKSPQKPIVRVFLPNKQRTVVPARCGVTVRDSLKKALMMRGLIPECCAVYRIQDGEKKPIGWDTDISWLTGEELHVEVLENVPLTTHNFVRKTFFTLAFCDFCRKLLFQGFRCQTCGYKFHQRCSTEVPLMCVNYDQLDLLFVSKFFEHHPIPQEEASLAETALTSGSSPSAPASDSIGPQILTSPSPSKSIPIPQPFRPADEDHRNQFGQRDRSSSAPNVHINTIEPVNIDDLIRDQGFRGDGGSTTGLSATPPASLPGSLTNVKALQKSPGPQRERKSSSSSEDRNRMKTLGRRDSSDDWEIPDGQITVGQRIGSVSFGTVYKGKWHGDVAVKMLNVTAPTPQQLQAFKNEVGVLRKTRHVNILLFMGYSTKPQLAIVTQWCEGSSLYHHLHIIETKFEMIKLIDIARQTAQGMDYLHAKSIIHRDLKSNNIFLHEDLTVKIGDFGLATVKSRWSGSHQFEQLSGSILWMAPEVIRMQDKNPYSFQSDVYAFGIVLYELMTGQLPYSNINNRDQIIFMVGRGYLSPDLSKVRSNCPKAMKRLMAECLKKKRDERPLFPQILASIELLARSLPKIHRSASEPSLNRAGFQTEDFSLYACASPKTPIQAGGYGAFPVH
T2 sequence (P15056 whole entry V600E, the tested form may be a part): as the sequence (P15056 whole entry G466V) above, with V466G, V600E counted along it
T4 sequence (P15056 whole entry G469A): as the sequence (P15056 whole entry G466V) above, with V466G, G469A counted along it
T3 sequence (P15056 whole entry D594G): as the sequence (P15056 whole entry G466V) above, with V466G, D594G counted along it

Row | DC50 [1, 5] [nM] | Dmax [1, 6] [%] | DC50 [2, 7] [nM] | Dmax [2, 8] [%] | DC50 [3, 9] [nM] | Dmax [3, 10] [%] | DC50 [4, 11] [nM] | Dmax [4, 12] [%] | DC50 [1, 13] [nM] | Dmax [1, 14] [%] | DC50 [2, 15] [nM] | Dmax [2, 16] [%] | DC50 [3, 17] [nM] | Dmax [3, 18] [%] | DC50 [4, 19] [nM] | Dmax [4, 20] [%] | Compound
1 | < 10 | > 70 | < 10 | > 70 | < 10 | > 70 | 10 to 50 | 30 to 70 | – | – | – | – | – | – | – | – | O=C1CC[C@H](c2ccc(N3CCC(CN4CCN(c5ccc(-n6cc(-c7cc(F)cc(NS(=O)(=O)N8CC[C@@H](F)C8)c7F)c(-c7ccncc7)n6)nc5)CC4)CC3)cc2)C(=O)N1 [Compound 302, (3R)—N-{3-[1-(5-{4-[(1-{4-[(3R)-2,6-dioxopiperidin-3-yl]phenyl}piperidin-4-yl)methyl]piperazin-1-yl}pyridin-2-yl)-3-(pyridin-4-yl)-1H-pyrazol-4-yl]-2,5-difluorophenyl}-3-fluoropyrrolidine-1-sulfonamide]
2 | < 10 | > 70 | < 10 | > 70 | < 10 | 30 to 70 | 10 to 50 | 30 to 70 | – | – | – | – | – | – | – | – | C[C@@H]1CN(c2ccc(-n3cc(-c4cc(Cl)cc(NS(=O)(=O)N5CC[C@@H](F)C5)c4F)c(-c4ccncc4)n3)cc2)CCN1CC1CCN(c2ccc(N3CCC(=O)NC3=O)cc2)CC1 [Compound 315, (3R)—N-[5-chloro-3-(1-{4-[(3R)-4-({1-[4-(2,4-dioxo-1,3-diazinan-1-yl)phenyl]piperidin-4-yl}methyl)-3-methylpiperazin-1-yl]phenyl}-3-(pyridin-4-yl)-1H-pyrazol-4-yl)-2-fluorophenyl]-3-fluoropyrrolidine-1-sulfonamide]
3 | – | – | – | – | – | – | – | – | > 500 | < 30 | 10 to 50 | 30 to 70 | > 500 | 30 to 70 | > 500 | < 30 | CCCS(=O)(=O)Nc1cccc(-c2nc(C(C)(C)C)sc2-c2ccnc(Nc3cnn(C4CCN(CC[C@H]5CCN(c6ccc(C7CCC(=O)NC7=O)cn6)C5)CC4)c3)n2)c1F (mixture of isomers) [Compound 77, N-{3-[2-tert-butyl-5-(2-{[1-(1-{2-[(3S)-1-{5-[(3RS)-2,6-dioxopiperidin-3-yl]pyridin-2-yl}pyrrolidin-3-yl]ethyl}piperidin-4-yl)-1H-pyrazol-4-yl]amino}pyrimidin-4-yl)-1,3-thiazol-4-yl]-2-fluorophenyl}propane-1-sulfonamide]
4 | – | – | – | – | – | – | – | – | > 500 | < 30 | < 10 | > 70 | > 500 | 30 to 70 | > 500 | < 30 | CCCS(=O)(=O)Nc1cccc(-c2nc(C(C)(C)C)sc2-c2ccnc(Nc3ccc(N4CCN(C(=O)CC5CCN(c6ccc(C7CCC(=O)NC7=O)cn6)CC5)CC4)c(F)c3)n2)c1F (racemic) [Compound 48, Rac-N-[3-(2-tert-butyl-5-{2-[(4-{4-[2-(1-{5-[(3R)-2,6-dioxopiperidin-3-yl]pyridin-2-yl}piperidin-4-yl)acetyl]piperazin-1-yl}-3-fluorophenyl)amino]pyrimidin-4-yl}-1,3-thiazol-4-yl)-2-fluorophenyl]propane-1-sulfonamide]
5 | – | – | – | – | – | – | – | – | > 500 | < 30 | 10 to 50 | > 70 | > 500 | < 30 | > 500 | < 30 | CCCS(=O)(=O)Nc1cccc(-c2nc(C(C)(C)C)sc2-c2ccnc(Nc3cccc(C4CCN(CC[C@@H]5CCN(c6ccc(C7CCC(=O)NC7=O)cn6)C5)CC4)c3)n2)c1F (mixture of isomers) [Compound 75, N-{3-[2-tert-butyl-5-(2-{[3-(1-{2-[(3R)-1-{5-[(3RS)-2,6-dioxopiperidin-3-yl]pyridin-2-yl}pyrrolidin-3-yl]ethyl}piperidin-4-yl)phenyl]amino}pyrimidin-4-yl)-1,3-thiazol-4-yl]-2-fluorophenyl}propane-1-sulfonamide]
6 | < 10 | > 70 | < 10 | > 70 | < 10 | 30 to 70 | 10 to 50 | 30 to 70 | – | – | – | – | – | – | – | – | O=C1CC[C@H](c2ccc(N3CCC(CN4CCN(c5ccc(-n6cc(-c7cc(Cl)cc(NS(=O)(=O)N8CCCC8)c7F)c(-c7ccncc7)n6)cn5)CC4)CC3)cc2)C(=O)N1 [Compound 351, N-{5-chloro-3-[1-(6-{4-[(1-{4-[(3R)-2,6-dioxopiperidin-3-yl]phenyl}piperidin-4-yl)methyl]piperazin-1-yl}pyridin-3-yl)-3-(pyridin-4-yl)-1H-pyrazol-4-yl]-2-fluorophenyl}pyrrolidine-1-sulfonamide]
7 | < 10 | > 70 | < 10 | > 70 | < 10 | > 70 | < 10 | > 70 | – | – | – | – | – | – | – | – | C[C@@H]1CN(c2ccc(-n3cc(-c4cc(Cl)cc(NS(=O)(=O)N5CCCC5)c4F)c(-c4ccncc4)n3)cc2)CCN1CC1CCN(c2ccc(C3CCC(=O)NC3=O)cn2)CC1 (mixture of isomers) [Compound 268, N-(5-chloro-3-(1-(4-((R)-4-((1-(5-((RS)-2,6-dioxopiperidin-3-yl)pyridin-2-yl)piperidin-4-yl)methyl)-3-methylpiperazin-1-yl)phenyl)-3-(pyridin-4-yl)-1H-pyrazol-4-yl)-2-fluorophenyl)pyrrolidine-1-sulfonamide]
8 | – | – | – | – | – | – | – | – | > 500 | 30 to 70 | 10 to 50 | > 70 | > 500 | < 30 | > 500 | < 30 | CCCS(=O)(=O)Nc1cccc(-c2nc(C(C)(C)C)sc2-c2ccnc(NC3CC4(CCN(C(=O)CN5CCC(c6ccc(NC7CCC(=O)NC7=O)cc6)CC5)CC4)C3)n2)c1F (racemic) [Compound 131, Rac-N-[3-(2-tert-butyl-5-{2-[(7-{2-[4-(4-{[(3R)-2,6-dioxopiperidin-3-yl]amino}phenyl)piperidin-1-yl]acetyl}-7-azaspiro[3.5]nonan-2-yl)amino]pyrimidin-4-yl}-1,3-thiazol-4-yl)-2-fluorophenyl]propane-1-sulfonamide]
9 | – | – | – | – | – | – | – | – | > 500 | < 30 | < 10 | > 70 | > 500 | 30 to 70 | 10 to 50 | 30 to 70 | CCN(C)S(=O)(=O)Nc1cccc(-c2nc(C(C)(C)C)sc2-c2ccnc(Nc3ccc(N4CCN(C(=O)C5CCN(c6ccc(C7CCC(=O)NC7=O)cc6)CC5)CC4)cn3)n2)c1F (racemic) [Compound 36, Rac-(3S)-3-[4-(4-{4-[6-({4-[2-tert-butyl-4-(3-{[ethyl(methyl)sulfamoyl]amino}-2-fluorophenyl)-1,3-thiazol-5-yl]pyrimidin-2-yl}amino)pyridin-3-yl]piperazine-1-carbonyl}piperidin-1-yl)phenyl]piperidine-2,6-dione]
10 | < 10 | > 70 | < 10 | > 70 | < 10 | > 70 | < 10 | > 70 | – | – | – | – | – | – | – | – | C[C@@H]1CN(c2ccc(-n3cc(-c4cc(Cl)cc(NS(=O)(=O)N5CC[C@@H](F)C5)c4F)c(-c4ccncc4)n3)cc2)CCN1CC1CCN(c2ccc(C3CCC(=O)NC3=O)cn2)CC1 (mixture of isomers) [Compound 318, (3R)—N-[5-chloro-3-(1-{4-[(3R)-4-[(1-{5-[(3RS)-2,6-dioxopiperidin-3-yl]pyridin-2-yl}piperidin-4-yl)methyl]-3-methylpiperazin-1-yl]phenyl}-3-(pyridin-4-yl)-1H-pyrazol-4-yl)-2-fluorophenyl]-3-fluoropyrrolidine-1-sulfonamide]
